Results: ChEMBL document CHEMBL1157133, “Design, synthesis, and interaction study of quinazoline-2(1H)-thione derivatives as novel potential Bcl-xL inhibitors” (J Med Chem, 2010)
Calls of active or inactive are those of the source. No cut-off for these calls is given here.

Assays:
[1] = biological target: Induced myeloid leukemia cell differentiation protein Mcl-1 homolog (Mus musculus, UniProt P97287); assay: Displacement of FITC-labeled BH3 peptide from GST-tagged mouse Mcl1 after 1 hr by fluorescence polarization assay
Induced myeloid leukemia cell differentiation protein Mcl-1 homolog, sequence (P97287 whole entry): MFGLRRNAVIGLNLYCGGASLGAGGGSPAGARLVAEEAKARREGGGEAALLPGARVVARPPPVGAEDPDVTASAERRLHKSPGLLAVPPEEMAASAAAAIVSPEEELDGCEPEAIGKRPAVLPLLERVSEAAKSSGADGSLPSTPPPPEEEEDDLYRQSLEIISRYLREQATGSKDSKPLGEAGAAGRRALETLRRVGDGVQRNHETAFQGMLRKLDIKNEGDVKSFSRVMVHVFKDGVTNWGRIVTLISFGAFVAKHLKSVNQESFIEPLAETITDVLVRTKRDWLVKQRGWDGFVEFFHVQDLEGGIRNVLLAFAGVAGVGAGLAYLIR

[2] = test system: A2780; assay: cells; settings: Homo sapiens, A2780, 48 h
Description: Cytotoxicity against human A2780 cells after 48 hrs by MTT assay

[3] = test system: K562; assay: Induction of apoptosis in human K562 cells assessed as increase of reactive oxygen species level at 25 uM after 48 hrs using DCFH-DA fluorescent dye relative to control; type: functional
[4] = biological target: T1, Bcl-2-like protein 1 (Homo sapiens, UniProt Q07817); assay: Displacement of FITC-labeled BH3 peptide from human Bcl-XL after 1 hr by fluorescence polarization assay
T1 sequence (Q07817 whole entry): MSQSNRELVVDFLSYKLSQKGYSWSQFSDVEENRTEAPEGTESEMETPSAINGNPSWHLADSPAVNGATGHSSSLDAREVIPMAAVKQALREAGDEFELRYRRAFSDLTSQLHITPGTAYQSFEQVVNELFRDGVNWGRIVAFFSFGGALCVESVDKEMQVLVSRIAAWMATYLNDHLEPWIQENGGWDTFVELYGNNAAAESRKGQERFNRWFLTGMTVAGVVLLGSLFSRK

[5] = test system: K562; assay: cells; settings: Homo sapiens, K562, 48 h
Description: Cytotoxicity against human K562 cells after 48 hrs by MTT assay

[6] = biological target: T1, Bcl-2-like protein 1; assay: Binding affinity to human Bcl-XL by surface plasma resonance based biosensor system
[7] = test system: HepG2; assay: cells; settings: Homo sapiens, HepG2, 48 h
Description: Cytotoxicity against human HepG2 cells after 48 hrs by MTT assay

[8] = biological target: Bcl-2-like protein 1 (Homo sapiens, UniProt Q07817, E96A); assay: Binding affinity to human Bcl-XL E96A mutant by surface plasma resonance based biosensor system
Bcl-2-like protein 1 (Homo sapiens, UniProt Q07817, E96A), sequence (Q07817 whole entry E96A): as the sequence (Q07817 whole entry) above, with E96A counted along it

[9] = test system: OVCAR-3; assay: Cytotoxicity against human OVCAR-3 cells after 48 hrs by MTT assay; settings: OVCAR-3, 48 h
[10] = test system: K562; assay: Induction of apoptosis in human K562 cells assessed activation of caspase3 at 25 uM after 48 hrs by immunoblotting; type: functional, cell-based
[11] = test system: K562; assay: Induction of apoptosis in human K562 cells assessed as chromatin condensation; type: functional, cell-based
[12] = biological target: Apoptosis regulator Bcl-2 (Homo sapiens, UniProt P10415); assay: Displacement of FITC labeled BH3 peptide from His-tagged human BCL2 after 1 hr by fluorescence polarization assay
Apoptosis regulator Bcl-2, sequence (P10415 whole entry): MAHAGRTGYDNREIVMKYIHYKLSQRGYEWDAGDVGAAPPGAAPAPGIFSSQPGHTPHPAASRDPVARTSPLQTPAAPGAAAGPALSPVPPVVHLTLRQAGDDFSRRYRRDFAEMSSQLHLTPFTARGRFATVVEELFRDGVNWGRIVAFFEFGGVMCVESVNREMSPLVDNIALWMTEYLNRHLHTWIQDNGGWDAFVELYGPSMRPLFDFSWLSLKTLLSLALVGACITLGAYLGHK

[13] = biological target: T1, Bcl-2-like protein 1; assay: Inhibition of human Bcl-XL
[14] = test system: K562; assay: Induction of apoptosis in human K562 cells assessed reduction of mitochondrial membrane potential after 24 hrs using JC1 fluorescent dye
[15] = biological target: Bcl-2-like protein 1 (Homo sapiens, UniProt Q07817, Y195A); assay: Binding affinity to human Bcl-XL Y195A mutant by surface plasma resonance based biosensor system
Bcl-2-like protein 1 (Homo sapiens, UniProt Q07817, Y195A), sequence (Q07817 whole entry Y195A): as the sequence (Q07817 whole entry) above, with Y195A counted along it

[16] = Cytotoxicity against human Bel7404 cells after 48 hrs by MTT assay; settings: BEL-7404, 48 h
[17] = test system: K562; assay: Induction of apoptosis in human K562 cells assessed activation of caspase9 at 25 uM after 48 hrs by immunoblotting; type: functional, cell-based
[18] = biological target: Bcl-2-like protein 1 (Homo sapiens, UniProt Q07817, Y101A); assay: Binding affinity to human Bcl-XL Y101A mutant by surface plasma resonance based biosensor system
Bcl-2-like protein 1 (Homo sapiens, UniProt Q07817, Y101A), sequence (Q07817 whole entry Y101A): as the sequence (Q07817 whole entry) above, with Y101A counted along it

[19] = test system: PC-3; assay: Cytotoxicity against human PC3 cells after 48 hrs by MTT assay; type: functional, cell-based; settings: for EC50: PC-3, 48 h

| Compound | IC50 [1] [µM] | EC50 [2] [µM] | fold change (FC) [3] | IC50 [4] [µM] | EC50 [5] [µM] | Kd [6] [µM] | EC50 [7] [µM] | Kd [8] [µM] | EC50 [9] [µM] | Activity [10] | Activity [11] | IC50 [12] [µM] | IC50 [13] [µM] | Activity [14] | Kd [15] [µM] | EC50 [16] [µM] | Activity [17] | Kd [18] [µM] | Activity [19] | EC50 [19] [µM] |
| --- | --- | --- | --- | --- | --- | --- | --- | --- | --- | --- | --- | --- | --- | --- | --- | --- | --- | --- | --- | --- |
| COc1ccccc1C1C2=C(N=c3s/c(=C\c4cccc(OCC(=O)O)c4)c(=O)n31)c1ccccc1CC2 (stereo unspecified) | 6.4 | 4.57 | 2.7 | 3.4 | 50.9 | 9.5 | 12.7 | 34.8 | 1.54 | Active | Active | 3.1 | 3.4 | Dose-dependent effect | 904 | 7.9 | Active | 6.94 | Dose-dependent effect | 37.6 |
| COc1ccc(C2C3=C(N=c4s/c(=C\c5ccc(-c6cccc(C(=O)O)c6)o5)c(=O)n42)c2ccccc2CC3)cc1 (stereo unspecified) | 18.6 | 13.1 | – | 6.9 | 72.3 | – | > 100 | – | 7.21 | – | – | 8 | 6.9 | – | – | 24.7 | – | > 1000 | Dose-dependent effect | 12 |
| O=C(O)c1cccc(-c2ccc(/C=c3\sc4n(c3=O)C(c3cccc(F)c3)C3=C(N=4)c4ccccc4CC3)o2)c1 (stereo unspecified) | 8.6 | 5.81 | – | 3 | > 100 | – | 15.4 | – | 12 | – | – | 3.2 | 3 | – | – | 51.3 | – | – | Dose-dependent effect | > 100 |
| COc1ccc(C2C3=C(N=c4s/c(=C\c5ccc(OCc6cccc(C(=O)O)c6)c(OC)c5)c(=O)n42)c2ccccc2CC3)cc1 (stereo unspecified) | 34.4 | 3.03 | – | 17.4 | 6.42 | – | 9.9 | – | 11.7 | – | – | 19.4 | 17.4 | – | – | 7.2 | – | > 1000 | Dose-dependent effect | > 100 |
| COc1cccc(C2C3=C(N=c4s/c(=C\c5ccc(-c6cccc(C(=O)O)c6)o5)c(=O)n42)c2ccccc2CC3)c1 (stereo unspecified) | 19.2 | 13.8 | – | 7.3 | > 100 | – | > 100 | – | 7.91 | – | – | 11.1 | 7.3 | – | – | > 100 | – | – | Dose-dependent effect | 29.5 |
